In ChEMBL document CHEMBL1201862, “PubChem BioAssay data set” (2004):
Calls of active or inactive are those of the source. Rule as the data show it, for most assays here: actives have a measured EC50 and inactives only a lower limit.

Columns and labels:
[1] = tested on: INS1; assay: beta cell apoptosis inhibitors, cytokine rescue, dose response, luminescence, retest (AID 449756); type: functional, cell-based; details: Rattus norvegicus;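 also: cell death triggered by IL-1 beta plus TNF-alpha plus IFN-gamma mixture; protective hits raise ATP signal compared with cytokine alone wells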
[2] = molecular target: T1, Heat shock factor protein 1 (Mus musculus, UniProt P38532); assay: HSF1 potentiators in luciferase reporter cells, confirmation, cell-based, NIH3T3, luminescence, dose retest (AID 435004); type: functional;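 also: stress induced by proteasome inhibitor MG132 added 30 min after compound; luciferase reporter driven by HSF1 response element in NIH3T3 cells; actives raise luminescence as potentiators of the MG132 stress response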
T1 sequence (P38532 whole entry): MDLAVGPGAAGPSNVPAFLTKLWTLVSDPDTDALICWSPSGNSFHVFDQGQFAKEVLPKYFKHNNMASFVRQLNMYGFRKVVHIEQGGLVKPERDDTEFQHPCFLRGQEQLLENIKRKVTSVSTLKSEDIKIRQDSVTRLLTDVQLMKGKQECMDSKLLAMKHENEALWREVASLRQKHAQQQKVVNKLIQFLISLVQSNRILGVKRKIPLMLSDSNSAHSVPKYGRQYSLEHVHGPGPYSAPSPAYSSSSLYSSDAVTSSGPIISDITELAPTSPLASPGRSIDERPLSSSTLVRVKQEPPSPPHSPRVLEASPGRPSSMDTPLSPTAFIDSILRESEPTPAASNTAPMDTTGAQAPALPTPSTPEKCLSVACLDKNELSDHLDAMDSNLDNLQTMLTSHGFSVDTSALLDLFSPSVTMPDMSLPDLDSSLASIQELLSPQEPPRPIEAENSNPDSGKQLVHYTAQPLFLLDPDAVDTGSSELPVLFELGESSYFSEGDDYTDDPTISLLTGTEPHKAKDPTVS

[3] = inhibitors of firefly luciferase expression or activity, dose response, H4 neuroglioma cells, luminescence (AID 1990); type: functional, cell-based
[4] = Luminescence Cell-Based Dose Response HTS to Identify Inhibitors of 5'UTR Stem-Loop Driven Prion Protein mRNA Translation in H4 Neuroglioblastoma Cells. [Related pubchem assays: 1827 (Project Summary), 1813 (Primary HTS)]; type: functional
[5] = inhibitors of SNCA 5'UTR-driven reporter translation, confirmation, H4 neuroglioma cells, luminescence (AID 1988); type: functional, cell-based
[6] = HEp-2 cell cytotoxicity, dose response, cytotoxicity control for RSV inhibitor project, HTS (AID 2410); type: functional; details: human respiratory syncytial virus
[7] = molecular target: T2, Corticotropin-releasing factor receptor 2/Corticotropin-releasing factor-binding protein (Homo sapiens, UniProt P24387+Q13324); assay: Dose Response confirmation of uHTS hits for small molecule antagonists of the CRF-binding protein and CRF-R2 receptor complex.; type: functional; details: read-out: IC50_Mean
T2 sequence (Q13324 whole entry): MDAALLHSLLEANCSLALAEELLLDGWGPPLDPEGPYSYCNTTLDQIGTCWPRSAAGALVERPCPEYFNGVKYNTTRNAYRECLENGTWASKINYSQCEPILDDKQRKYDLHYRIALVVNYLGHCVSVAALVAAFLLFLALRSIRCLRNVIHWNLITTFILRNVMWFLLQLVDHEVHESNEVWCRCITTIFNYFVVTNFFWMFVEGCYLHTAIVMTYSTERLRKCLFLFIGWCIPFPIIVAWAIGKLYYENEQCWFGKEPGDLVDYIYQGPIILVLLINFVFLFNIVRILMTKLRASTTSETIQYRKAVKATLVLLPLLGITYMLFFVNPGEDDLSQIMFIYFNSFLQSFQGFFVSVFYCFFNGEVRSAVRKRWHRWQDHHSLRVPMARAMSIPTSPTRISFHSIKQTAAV
T2 sequence (P24387 whole entry): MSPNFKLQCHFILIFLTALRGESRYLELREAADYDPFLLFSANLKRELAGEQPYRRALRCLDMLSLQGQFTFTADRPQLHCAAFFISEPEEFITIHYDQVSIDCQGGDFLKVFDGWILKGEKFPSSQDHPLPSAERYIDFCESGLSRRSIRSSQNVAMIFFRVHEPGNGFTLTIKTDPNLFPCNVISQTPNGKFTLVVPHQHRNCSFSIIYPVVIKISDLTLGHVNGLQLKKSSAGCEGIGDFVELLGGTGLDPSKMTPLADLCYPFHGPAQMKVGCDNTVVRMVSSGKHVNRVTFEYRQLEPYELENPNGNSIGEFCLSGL

[8] = molecular target: T2, Corticotropin-releasing factor receptor 2/Corticotropin-releasing factor-binding protein; assay: activators of CRF receptor 2 with binding protein – uHTS hits, confirmation (AID 602473); type: functional; details: read-out: EC50_Mean
[9] = Luminescence Cell-Based Dose Retest to Confirm Inhibitors of Cancer Stem Cells. [Related pubchem assays (depositor defined):AID2717, AID2721]; type: functional; details: Homo sapiens

CCCCCCSc1cc(-c2nc3ccc(C)cn3c2NCc2ccccc2)ccc1OC
AC50 [1]: 6.87 µM (active)

C=CCn1c(SCC(=O)Nc2cc(NC(C)=O)ccc2OC)nnc1-c1cccnc1
EC50 [2]: > 260 µM (inactive)

CCNC(=O)Nc1cc(S(=O)(=O)Nc2ccc(OC)cc2)ccc1N1CCOCC1
AC50 [1]: 3.3 µM (active)

CN(c1cccc(NC(=O)CN(c2cccc(Cl)c2)S(=O)(=O)c2ccc(Cl)cc2)c1)S(C)(=O)=O
EC50 [2]: > 260 µM (inactive)

CCc1ccccc1Nc1nc2ccccc2n1CC
EC50 [3]: > 120 µM (not active) | EC50 [4]: > 120 µM (not active) | EC50 [5]: 23 µM (active)

C[C@@H]1CN([C@H](C)CO)C(=O)c2cc(NC(=O)Nc3ccc(C(F)(F)F)cc3)ccc2O[C@H]1CN(C)S(=O)(=O)c1cccs1
AC50 [1]: 27 µM (active)

Cc1nonc1C1CCCN1Cc1c[nH]nc1-c1ccc(-c2ccccc2)cc1 (configuration not stated)
CC50 [6]: 21.4 µM (active) | EC50 [2]: 35.2 µM (active)

COc1cccc(C(=O)N2CCCC(CCC(=O)NCc3ccc(F)c(F)c3)C2)c1 (configuration not stated)
IC50 [7]: > 47.1 µM (inactive) | EC50 [8]: > 53 µM (inactive)

O=C(c1ccco1)N1N=C(c2ccc(Br)cc2)CC1c1ccco1 (configuration not stated)
AC50 [1]: 19.8 µM (active)

CC(C)c1ccc(/C=C/C(=O)n2nnc3ccccc32)cc1
CC50 [6]: 25.1 µM (active) | EC50 [2]: 14.2 µM (active)

O=S(=O)(NC1c2cccc3cccc(c23)C1N1CCNCC1)c1ccc(Cl)cc1 (configuration not stated)
EC50 [2]: > 260 µM (inactive)

CCc1ccccc1N1C(=O)C2CC(C)=C(C)CC2C1=O (configuration not stated)
IC50 [7]: > 47.1 µM (inactive) | EC50 [8]: > 53 µM (inactive)

C#CCN(C#N)c1nc(NCC)nc(NC(C)C)n1
EC50 [3]: 28.9 µM (active) | EC50 [4]: > 120 µM (not active) | EC50 [5]: 16 µM (active)

COc1cc(OC)cc(C(=O)NCC(=O)OCc2cc(=O)oc3cc(OC)ccc23)c1
IC50 [7]: > 47.1 µM (inactive) | EC50 [8]: > 53 µM (inactive)

O=C(CSc1nnc(C2COc3ccccc3O2)o1)NC1CCCCC1 (configuration not stated)
IC50 [7]: > 47.1 µM (inactive) | EC50 [8]: > 53 µM (inactive)

CCOC(=O)Cn1nnnc1C(C(C)C)N(Cc1cc2c(C)cc(C)cc2[nH]c1=O)C1CCCC1 (configuration not stated)
EC50 [2]: 36.9 µM (active)

Cc1ccc(O)c(CNc2nccs2)c1
EC50 [2]: 20.5 µM (active)

S=C(NCc1ccccc1)Nc1ccc(Cl)cc1
IC50 [7]: > 47.1 µM (inactive) | EC50 [8]: > 53 µM (inactive)

COc1ccc(C2C(C#N)=C(N)Oc3cc4c(cc32)OCO4)cc1 (configuration not stated)
EC50 [3]: > 120 µM (not active) | EC50 [4]: 74 µM (active) | EC50 [5]: 10.9 µM (active)

COc1ccc(C(C(=O)NCC2CCCO2)N(C(=O)Cn2nnc3ccccc32)c2ccc(NC(C)=O)cc2)cc1OC (configuration not stated)
EC50 [2]: > 260 µM (inactive)

Cc1ccc2c(c1)c(-c1ccccc1)nc1nnnn12
EC50 [3]: 17.5 µM (active) | EC50 [4]: > 120 µM (not active) | EC50 [5]: 120 µM (active)

CC1(C)C[C@@H]2C[C@@](C)(CN2C(=O)c2cc(COc3cccc(C(F)(F)F)c3)on2)C1
AC50 [9]: 2.23 µM (active) | AC50 [1]: 11.6 µM (active)

COc1cccc(C2[C@H](C)C3(CCN2C)OCCO3)c1 (some centres not stated)
EC50 [3]: > 120 µM (not active) | EC50 [4]: > 120 µM (not active) | EC50 [5]: > 120 µM (not active)

COc1ccc(-c2noc(CCCC(=O)NC3CCCC3)n2)cc1
EC50 [3]: 11 µM (active) | EC50 [4]: 14.1 µM (active) | EC50 [5]: 13.3 µM (active)

CCC(C)(C)c1ccc(Oc2ccc(NC(=O)COC(=O)C3=COCCO3)cc2)cc1
EC50 [3]: 6.08 µM (active) | EC50 [4]: 10.1 µM (active) | EC50 [5]: 8.92 µM (active)

COc1ccc(CNC(=O)CCC(=O)N2CC(C)Oc3ccccc32)cc1 (configuration not stated)
EC50 [2]: > 260 µM (inactive)

Cc1cc(C)c2c(C)n[nH]c2n1
AC50 [1]: > 260 µM (inactive)

CCc1nc(N2CCN(S(=O)(=O)c3ccc(Br)cc3)CC2)c2c(C)c(C)sc2n1
EC50 [2]: > 260 µM (inactive)

CN(CCO)S(=O)(=O)c1ccc2c(c1)C(=NNC(N)=O)c1cc(S(=O)(=O)N(C)CCO)ccc1-2
IC50 [7]: > 47.1 µM (inactive) | EC50 [8]: > 53 µM (inactive)
